From patent US6544971B1, “Method of increasing alertness by administration of a vomeropherin, and vomeropherin-emitting alarm devices” (Pherin Pharmaceuticals, Inc., priority 2000, dated 2003)

Legend:
Type in all cases: in vivo
Human Subjects [1] = experiment: Cognitive and motor performance tests before sleep and in the morning (maze, digit-symbol substitution, dot test, number repetition); conditions: night versus morning tests
From the text: During the study, subjects spent one night in the sleep laboratory and underwent conventional polysomnography (PSG) only, during the first hour. The criteria for this short recording was based on previous findings showing that single dose VNO stimulation with the vomeropherins induced effects within one hour after stimulation. Before starting the recordings, each subject was questioned regarding distressing or extenuating events during that day that could contribute to sleep disruption. Times of last meal and physical exercise (if applicable) were also recorded. In order to determine whether the compound would affect daytime activities, or anterograde memory, judgment and motor skills were also evaluated both before going to sleep and in the morning. […]
In the morning, all subjects completed a multiple-choice questionnaire regarding the following variables: sleep latency after last entry, estimated time sleeping, number of awakenings, and quality of sleep. General status at waking time was determined by marking on a 9 item analog scale inventory. […]

Human Subjects [2] = experiment: Morning multiple-choice questionnaire and analog scale (sleep latency, duration, quality, status at waking)
Description: In the morning, all subjects completed a multiple-choice questionnaire regarding the following variables: sleep latency after last entry, estimated time sleeping, number of awakenings, and quality of sleep. General status at waking time was determined by marking on a 9 item analog scale inventory. In addition, all subjects were administered cognitive and motor performance tests identical to those received before bedtime.

Human Subjects [3] = experiment: Subjective in-session self-evaluation at half-hour intervals (questionnaire and 3 item analog sleepiness scale); conditions: for Self-Perception of Sleepiness, score on sleepiness scale inventory: scale 0 to 10, higher numbers more sleepiness
Description: Immediately prior to “lights out”, subjects were asked to lie in a supine position. The MVA was positioned in the right nostril, with its nozzle directed toward the right VNO opening. Later, the MVA was positioned in the left nostril for stimulation of the left VNO. Two pulses of air or the test compound or placebo were administered to each VNO. The same procedure was repeated 30 minutes later, at which times the investigator would enter the room and wake the subject if they were asleep, so that the total dose of the vomeropherin being administered to each subject was 800 pg.
At each 30 minute sleep interruption, prior to the test compound application, each subject was given a short questionnaire to record their perception of whether they were asleep, estimated time spent awake, and number of awakenings. In addition, sleepiness was measured by a 3 item analog scale inventory (scored from 0 to 10, higher numbers indicating more sleepiness) that included: a) readiness to get back to sleep; b) degree of anxiety and c) self rated level of sleepiness. […] Recordings began at 10:00 p.m. and lasted until 6:00 a.m. of the following day. Frontal, parietal and occipital electroencephalograms (EEG), electrooculograms, and electromyograms were recorded during the first hour. These recordings were coded and scored blind for non-rapid eye movement sleep latency from “lights out” to the appearance of the first minute of Stage 1 sleep, total wake time, wake time after sleep onset, and total sleep time. Sleep stages were assigned according to the criteria of Rechtschaffen and Kales (1968). All variables were scored separately for each 30-minute interval. Number of awakenings was tallied for the entire hour of recording.

Human Subjects [4] = experiment: Sleep study by polysomnography (PSG) after VNO stimulation, randomized single-blind placebo-controlled; conditions: for Overall effect on sleep and arousal: conclusion from PSG and self-reports
Description: Three methods were used to assess sleep: 1) sleep study, 2) quantitative electroencephalography, and 3) psychometric tests. The study was carried out using a randomized, single-blind, placebo-controlled experimental design.
Screening was performed several days prior to the study session via clinical interviews and examination. Additionally, Hamilton A and D, and Covy tests were administered to determine concomitant anxiety or affective disorders. A thorough questionnaire regarding sleep habits and sleep pathologies was also administered to each subject. Criteria for inclusion in the study included subjects with a score of 12 or less on the Covy test and a score of 8 or less on the Hamilton A and Hamilton D tests, and absence of any medical or psychiatric conditions. Ten physically and mentally healthy young male adult subjects were selected for the study. All of them Were normal sleepers (i.e., they reported no difficulty in falling or remaining asleep at night, slept between 6 and 8.5 hours per night, and were alert during the daytime).
On the day of the study, they were instructed to refrain from napping, to avoid consuming alcohol or caffeine containing beverages, and to maintain a uniform daily level of activity. The ten subjects were divided into two groups of five, with the test compound being administered to one group and the other acting as a control.
The test compound was administered to the VNO using a manual vomeronasal applicator (MVA). This applicator comprises an air supply, delivering a 1 ml pulse of air; a valve system passing that pulse of air either through a chamber containing 30 mg of USP cotton that has been previously soaked with 1 ml of a 1 mg/ml solution of the test compound, estra-1,3,5(10),16-tetraen-3-yl acetate, in ethanol and allowed to dry overnight, or bypassing that chamber; a one-way flow valve; and a nozzle capable of being positioned in a nostril to provide direct administration to the lumen of the VNO. With a 1 ml air pulse, the MVA delivers 200 pg of the test compound to the VNO.
During the study, subjects spent one night in the sleep laboratory and underwent conventional polysomnography (PSG) only, during the first hour. The criteria for this short recording was based on previous findings showing that single dose VNO stimulation with the vomeropherins induced effects within one hour after stimulation. Before starting the recordings, each subject was questioned regarding distressing or extenuating events during that day that could contribute to sleep disruption. Times of last meal and physical exercise (if applicable) were also recorded. In order to determine whether the compound would affect daytime activities, or anterograde memory, judgment and motor skills were also evaluated both before going to sleep and in the morning. For this purpose, subjects were administered a maze test, a digit-symbol substitution test, a right and left manual coordination test (dot test), and a number repetition test as described in a previous publication (Monti, J. M., 1989, Slow Wave Sleep in Health and Disease. In: Waukier A., Dugovic C. and Radulovacki M. “Slow Wave Sleep.” New York, Raven Press. pp. […]).
Immediately prior to “lights out”, subjects were asked to lie in a supine position. The MVA was positioned in the right nostril, with its nozzle directed toward the right VNO opening. Later, the MVA was positioned in the left nostril for stimulation of the left VNO. […]

[5] = morning questionnaire, latency after last entry, 5 subjects per group
[6] = morning questionnaire, 5 subjects per group

Structure (SMILES): CC(=O)Oc1ccc2c(c1)CC[C@@H]1[C@@H]2CC[C@]2(C)C=CC[C@@H]12 [Test Compound, estra-1,3,5(10),16-tetraen-3-yl acetate]
- Change in scores for anterograde memory, judgment or motor dexterity (Human Subjects [1]): Neither the control nor the test group revealed any changes in scores
- Sleep quality (disturbed or undisturbed) (Human Subjects [2]; classified by subjects in the morning): one subject in the test group defined their sleep as “disturbed”
- Sleep Latencies <30 Minutes, number of subjects (Human Subjects [2]; [5]): 0 n
- Sleep Latencies >30 minutes, number of subjects (Human Subjects [2]; [5]): 5 n
- Sleep Duration 4-6 hours, number of subjects (Human Subjects [2]; [6]): 5
- Sleep Duration 7-8 hours, number of subjects (Human Subjects [2]; [6]): 0
- Reported sleep latency after VNO stimulation (Human Subjects [2]; morning quiz, control group shorter than 30 minutes): > 30 min
- Condition at morning waking (index and visual analog scale) (Human Subjects [2]; versus placebo): did not show any difference
- Self-Perception of Sleepiness, score on sleepiness scale inventory (Human Subjects [3]; First entry (beginning study), placebo 7.5): 6.0
- Self-Perception of Sleepiness, score on sleepiness scale inventory (Human Subjects [3]; Second entry (60 min. int), after dosing, placebo 8.9): 3.2
- Self-reported number of awakenings (Human Subjects [3]; self-evaluation at half-hour intervals, control group none to more than three): three or more
- Effect on subject's self-perception of sleep (Human Subjects [3]; self-reports compared with PSG data): does not impair a subject's self-perception of sleep
- Overall effect on sleep and arousal (Human Subjects [4]): possible psychostimulant effect
- Overall effect on sleep and arousal (Human Subjects [4]; listed as estra-1,3,5(10),16-tetraen-3-yl acetate): primary arousing effect
- Sleep Onset Latency (SOL), Mean (Human Subjects [4]; healthy young male adults, 5 per group, test compound to VNO by MVA, total 800 pg, first hour PSG, control group 16): 21 min
- Wake Time after Sleep Onset, Mean (Human Subjects [4]; healthy young male adults, 5 per group, test compound to VNO by MVA, total 800 pg, first hour PSG, control group 17.7): 16.3 min
- Total Sleep Time (TST), Mean (Human Subjects [4]; healthy young male adults, 5 per group, test compound to VNO by MVA, total 800 pg, first hour PSG, control group 26.0): 14.3 min
